Experimental data from ChEMBL document CHEMBL4699440, “Comprehensive review on the anti-bacterial activity of 1,2,3-triazole hybrids” (Eur J Med Chem, 2019).
Converted amounts (≈) assume the structure as drawn. One block for each molecule: values may come before it.

Key:
Pseudomonas aeruginosa [1] = test: Antibacterial activity against Pseudomonas aeruginosa 12 incubated for 20 hrs by agar dilution method; type: functional
Staphylococcus aureus [2] = test: Antibacterial activity against Staphylococcus aureus 209P JC1 incubated for 20 hrs by agar dilution method; type: functional
Escherichia coli [3] = test: Antibacterial activity against Escherichia coli NIHJ JC2 incubated for 20 hrs by agar dilution method; type: functional
Enterococcus faecalis [4] = test: Antibacterial activity against Enterococcus faecalis ATCC 29212 after overnight incubation by CLSI M7-A9 based method; type: functional
Escherichia coli [5] = test: Antibacterial activity against Escherichia coli JM109 after overnight incubation by CLSI M7-A9 based method; type: functional
Escherichia coli [6] = test: Antibacterial activity against Escherichia coli ATCC 25922 after overnight incubation by CLSI M7-A9 based method; type: functional
Staphylococcus aureus [7] = test: Antibacterial activity against Staphylococcus aureus CIP 6525 after overnight incubation by CLSI M7-A9 based method; type: functional
Proteus mirabilis = test: Antibacterial activity against Proteus mirabilis ATCC 35659 incubated for 24 hrs by microdilution method; type: functional
Staphylococcus aureus [8] = test: Antibacterial activity against Staphylococcus aureus ATCC 25923 incubated for 24 hrs by microdilution method; type: functional
Escherichia coli [9] = test: Antibacterial activity against Escherichia coli ATCC 25922 incubated for 24 hrs by microdilution method; type: functional
Candida albicans = test: Antifungal activity against Candida albicans ATCC 50193 incubated for 24 hrs by microdilution method; type: functional
Enterococcus faecalis [10] = test: Antibacterial activity against Enterococcus faecalis ATCC 29212 incubated for 24 hrs by microdilution method; type: functional
Pseudomonas aeruginosa [11] = test: Antibacterial activity against Pseudomonas aeruginosa ATCC 27853 incubated for 24 hrs by microdilution method; type: functional
Aspergillus brasiliensis = test: Antifungal activity against Aspergillus brasiliensis ATCC 16404 incubated for 24 hrs by microdilution method; type: functional
Bacillus cereus = test: Antibacterial activity against Bacillus cereus ATCC 10876 incubated for 24 hrs by microdilution method; type: functional
Enterococcus faecalis [12] = test: Antibacterial activity against Enterococcus faecalis MTCC 439 incubated overnight by broth dilution technique; type: functional, organism-based
Escherichia coli [13] = test: Antibacterial activity against Escherichia coli ATCC 25922 incubated overnight by broth dilution technique; type: functional, organism-based
Salmonella enterica = test: Antibacterial activity against Salmonella enterica MTCC 3224 incubated overnight by broth dilution technique; type: functional, organism-based
Klebsiella pneumoniae = test: Antibacterial activity against Klebsiella pneumoniae ATCC 700603 incubated overnight by broth dilution technique; type: functional, organism-based
Streptococcus pneumoniae = test: Antibacterial activity against Streptococcus pneumoniae MTCC 655 incubated overnight by broth dilution technique; type: functional, organism-based
Pseudomonas aeruginosa [14] = test: Antibacterial activity against Pseudomonas aeruginosa MTCC 2453 incubated overnight by broth dilution technique; type: functional, organism-based

Structure (SMILES): C[C@H](c1ccccc1)N(CC(N)=O)C(=O)CN(C(=O)CN(Cc1cn(CCN)n[n+]1C)C(=O)CN(C(=O)CN(C(=O)CN(Cc1cn(CCN)n[n+]1C)C(=O)CN(C(=O)CN(C(=O)CNCc1cn(CCN)n[n+]1C)[C@H](C)c1ccccc1)[C@H](C)c1ccccc1)[C@H](C)c1ccccc1)[C@H](C)c1ccccc1)[C@H](C)c1ccccc1
- MIC (Enterococcus faecalis [4]): > 1.6 µg/mL
- MIC (Escherichia coli [5]): > 1.6 µg/mL
- MIC (Escherichia coli [6]): > 1.6 µg/mL
- MIC (Staphylococcus aureus [7]): > 1.6 µg/mL

Structure (SMILES): C[C@H](c1ccccc1)N(CC(N)=O)C(=O)CN(C(=O)CN(Cc1cn(CCN)n[n+]1C)C(=O)CN(C(=O)CN(C(=O)CN(Cc1cn(CCN)n[n+]1C)C(=O)CN(C(=O)CN(C(=O)CN(Cc1cn(CCN)n[n+]1C)C(=O)CN(C(=O)CN(C(=O)CNCc1cn(CCN)n[n+]1C)[C@H](C)c1ccccc1)[C@H](C)c1ccccc1)[C@H](C)c1ccccc1)[C@H](C)c1ccccc1)[C@H](C)c1ccccc1)[C@H](C)c1ccccc1)[C@H](C)c1ccccc1
- MIC (Enterococcus faecalis [4]): > 1.6 µg/mL
- MIC (Escherichia coli [5]): > 1.6 µg/mL
- MIC (Escherichia coli [6]): > 1.6 µg/mL
- MIC (Staphylococcus aureus [7]): > 1.6 µg/mL

Structure (SMILES): CCCCCCCCCCn1nnc(-c2n[nH]c(=S)n2N)c1-c1n[nH]c(=S)n1N
- MIC (Proteus mirabilis): 1 µg/mL (≈ 2.29 µM)
- MIC (Staphylococcus aureus [8]): 1 µg/mL (≈ 2.29 µM)
- MIC (Escherichia coli [9]): 1 µg/mL (≈ 2.29 µM)
- MIC (Candida albicans): 1 µg/mL (≈ 2.29 µM)
- MIC (Enterococcus faecalis [10]): 1 µg/mL (≈ 2.29 µM)
- MIC (Pseudomonas aeruginosa [11]): 1 µg/mL (≈ 2.29 µM)
- MIC (Aspergillus brasiliensis): 1 µg/mL (≈ 2.29 µM)
- MIC (Bacillus cereus): 1 µg/mL (≈ 2.29 µM)

Structure (SMILES): Cc1ccc(-n2cc(COc3cccc4cccnc34)nn2)cc1
- IC50 (Enterococcus faecalis [12]): 113 µg/mL (≈ 356 µM)
- IC50 (Escherichia coli [13]): 113 µg/mL (≈ 356 µM)
- IC50 (Salmonella enterica): 113 µg/mL (≈ 356 µM)
- IC50 (Klebsiella pneumoniae): 113 µg/mL (≈ 356 µM)
- IC50 (Streptococcus pneumoniae): 113 µg/mL (≈ 356 µM)
- IC50 (Pseudomonas aeruginosa [14]): 113 µg/mL (≈ 356 µM)

Structure (SMILES): C[C@H](c1ccccc1)N(CC(N)=O)C(=O)CN(C(=O)CN(Cc1cn(CC2CCCCC2)n[n+]1C)C(=O)CN(C(=O)CN(C(=O)CNCc1cn(CC2CCCCC2)n[n+]1C)[C@H](C)c1ccccc1)[C@H](C)c1ccccc1)[C@H](C)c1ccccc1
- MIC (Enterococcus faecalis [4]): > 1.6 µg/mL
- MIC (Escherichia coli [5]): > 1.6 µg/mL
- MIC (Escherichia coli [6]): > 1.6 µg/mL
- MIC (Staphylococcus aureus [7]): > 1.6 µg/mL

Structure (SMILES): Oc1cccc2cccnc12 [OXYQUINOLINE]
- IC50 (Enterococcus faecalis [12]): 15.6 µg/mL (≈ 108 µM)
- IC50 (Escherichia coli [13]): 15.6 µg/mL (≈ 108 µM)
- IC50 (Salmonella enterica): 15.6 µg/mL (≈ 108 µM)
- IC50 (Klebsiella pneumoniae): 15.6 µg/mL (≈ 108 µM)
- IC50 (Streptococcus pneumoniae): 15.6 µg/mL (≈ 108 µM)
- IC50 (Pseudomonas aeruginosa [14]): 15.6 µg/mL (≈ 108 µM)

Structure (SMILES): C[C@H](c1ccccc1)N(CC(N)=O)C(=O)CN(C(=O)CN(Cc1cn(CCN)nn1)C(=O)CN(C(=O)CN(C(=O)CN(Cc1cn(CCN)nn1)C(=O)CN(C(=O)CN(C(=O)CN(Cc1cn(CCN)nn1)C(=O)CN(C(=O)CN(C(=O)CNCc1cn(CCN)nn1)[C@H](C)c1ccccc1)[C@H](C)c1ccccc1)[C@H](C)c1ccccc1)[C@H](C)c1ccccc1)[C@H](C)c1ccccc1)[C@H](C)c1ccccc1)[C@H](C)c1ccccc1
- MIC (Enterococcus faecalis [4]): > 1.6 µg/mL
- MIC (Escherichia coli [5]): > 1.6 µg/mL
- MIC (Escherichia coli [6]): > 1.6 µg/mL
- MIC (Staphylococcus aureus [7]): > 1.6 µg/mL

Structure (SMILES): O=[N+]([O-])c1ccc(-n2cc(COc3cccc4cccnc34)nn2)cc1
- IC50 (Enterococcus faecalis [12]): 106 µg/mL (≈ 305 µM)
- IC50 (Escherichia coli [13]): 106 µg/mL (≈ 305 µM)
- IC50 (Salmonella enterica): 106 µg/mL (≈ 305 µM)
- IC50 (Klebsiella pneumoniae): 106 µg/mL (≈ 305 µM)
- IC50 (Streptococcus pneumoniae): 106 µg/mL (≈ 305 µM)
- IC50 (Pseudomonas aeruginosa [14]): 106 µg/mL (≈ 305 µM)

Structure (SMILES): Clc1ccc(-n2cc(COc3cccc4cccnc34)nn2)cc1
- IC50 (Enterococcus faecalis [12]): 106 µg/mL (≈ 315 µM)
- IC50 (Escherichia coli [13]): 106 µg/mL (≈ 315 µM)
- IC50 (Salmonella enterica): 106 µg/mL (≈ 315 µM)
- IC50 (Klebsiella pneumoniae): 106 µg/mL (≈ 315 µM)
- IC50 (Streptococcus pneumoniae): 106 µg/mL (≈ 315 µM)
- IC50 (Pseudomonas aeruginosa [14]): 106 µg/mL (≈ 315 µM)

Structure (SMILES): CCCCCCCCCCn1nnc(-c2n[nH]c(=S)n2-c2ccccc2)c1-c1n[nH]c(=S)n1-c1ccccc1
- MIC (Proteus mirabilis): 2 µg/mL (≈ 3.57 µM)
- MIC (Staphylococcus aureus [8]): 2 µg/mL (≈ 3.57 µM)
- MIC (Escherichia coli [9]): 2 µg/mL (≈ 3.57 µM)
- MIC (Candida albicans): 2 µg/mL (≈ 3.57 µM)
- MIC (Enterococcus faecalis [10]): 2 µg/mL (≈ 3.57 µM)
- MIC (Pseudomonas aeruginosa [11]): 2 µg/mL (≈ 3.57 µM)
- MIC (Aspergillus brasiliensis): 2 µg/mL (≈ 3.57 µM)
- MIC (Bacillus cereus): 2 µg/mL (≈ 3.57 µM)

Structure (SMILES): CCCCCCCCCCCCCCn1nnc(-c2n[nH]c(=S)n2N)c1-c1n[nH]c(=S)n1N
- MIC (Proteus mirabilis): 1 µg/mL (≈ 2.03 µM)
- MIC (Staphylococcus aureus [8]): 1 µg/mL (≈ 2.03 µM)
- MIC (Escherichia coli [9]): 1 µg/mL (≈ 2.03 µM)
- MIC (Candida albicans): 1 µg/mL (≈ 2.03 µM)
- MIC (Enterococcus faecalis [10]): 1 µg/mL (≈ 2.03 µM)
- MIC (Pseudomonas aeruginosa [11]): 1 µg/mL (≈ 2.03 µM)
- MIC (Aspergillus brasiliensis): 1 µg/mL (≈ 2.03 µM)
- MIC (Bacillus cereus): 1 µg/mL (≈ 2.03 µM)

More lines, now with the values ahead:

- MIC (Pseudomonas aeruginosa [1]): 0.05 µg/mL (≈ 0.13 µM)
- MIC (Staphylococcus aureus [2]): 0.05 µg/mL (≈ 0.13 µM)
- MIC (Escherichia coli [3]): 0.05 µg/mL (≈ 0.13 µM)
Structure (SMILES): CC1CCN(c2c(F)c3c(c(=O)c(C(=O)O)cn3C3CC3)c3[nH]nnc23)CC1

- MIC (Pseudomonas aeruginosa [1]): 0.05 µg/mL (≈ 0.135 µM)
- MIC (Staphylococcus aureus [2]): 0.05 µg/mL (≈ 0.135 µM)
- MIC (Escherichia coli [3]): 0.05 µg/mL (≈ 0.135 µM)
Structure (SMILES): O=C(O)c1cn(C2CC2)c2c(F)c(N3CCCCC3)c3nn[nH]c3c2c1=O

- IC50 (Enterococcus faecalis [12]): 106 µg/mL (≈ 306 µM)
- IC50 (Escherichia coli [13]): 106 µg/mL (≈ 306 µM)
- IC50 (Salmonella enterica): 106 µg/mL (≈ 306 µM)
- IC50 (Klebsiella pneumoniae): 106 µg/mL (≈ 306 µM)
- IC50 (Pseudomonas aeruginosa [14]): 106 µg/mL (≈ 306 µM)
Structure (SMILES): O=C(O)c1ccc(-n2cc(COc3cccc4cccnc34)nn2)cc1

- MIC (Pseudomonas aeruginosa [1]): 0.05 µg/mL (≈ 0.129 µM)
- MIC (Staphylococcus aureus [2]): 0.05 µg/mL (≈ 0.129 µM)
- MIC (Escherichia coli [3]): 0.05 µg/mL (≈ 0.129 µM)
Structure (SMILES): NCC1CCN(c2c(F)c3c(c(=O)c(C(=O)O)cn3C3CC3)c3[nH]nnc23)C1 (centres undefined)

- MIC (Pseudomonas aeruginosa [1]): 0.05 µg/mL (≈ 0.124 µM)
- MIC (Staphylococcus aureus [2]): 0.05 µg/mL (≈ 0.124 µM)
- MIC (Escherichia coli [3]): 0.05 µg/mL (≈ 0.124 µM)
Structure (SMILES): CC1CCN(c2c(Cl)c3c(c(=O)c(C(=O)O)cn3C3CC3)c3[nH]nnc23)CC1

- MIC (Pseudomonas aeruginosa [1]): 0.05 µg/mL (≈ 0.136 µM)
- MIC (Staphylococcus aureus [2]): 0.05 µg/mL (≈ 0.136 µM)
- MIC (Escherichia coli [3]): 0.05 µg/mL (≈ 0.136 µM)
Structure (SMILES): CC1CCN(c2cc3c(c(=O)c(C(=O)O)cn3C3CC3)c3[nH]nnc23)CC1
